For series [1], the system named is bloodstream forms of Trypanosoma brucei rhodesiense STIB 900 strain. Nature of the series: Activity against Trypanosoma brucei rhodesiense (resazurin, 72 h). As to conditions: for IC50: Trypanosoma brucei. Type of series: cell-based. How it is done: Minimum Essential Medium (50 µL) supplemented with 25 mM HEPES, 1 g/L additional glucose, 1% MEM non-essential amino acids (100×), 0.2 mM 2-mercaptoethanol, 1mM Na-pyruvate and 15% heat inactivated horse serum was added to each well of a 96-well microtiter plate. Serial drug dilutions of eleven 3-fold dilution steps covering a range from 100 to 0.002 μg/mL were prepared. Then 4 × 10^4 bloodstream forms of STIB 900 strain (the stock was isolated in 1982 from a human patient in Tanzania and after several mouse passages was cloned and adapted to axenic culture conditions) of T. b. rhodesiense in 50 μL was added to each well and the plate incubated at 37 °C under a 5% CO2 atmosphere for 72 h. 10 µL of a resazurin solution (prepared dissolving 12.5 mg resazurin in 100 mL double distilled water) was then added to each well and incubation continued for a further 2–4 h. Then the plates were read in a Spectramax Gemini XS microplate fluorometer (Molecular Devices Cooperation, Sunnyvale, CA, USA) using an excitation wavelength of 536 nm and an emission wavelength of 588 nm. The IC50 values were calculated by linear regression from the sigmoidal dose inhibition curves using SoftmaxPro software (Molecular Devices Cooperation, Sunnyvale, CA, USA). Melarsoprol was the standard drug.
Background: Alamar Blue is a resazurin reagent that responds to reducing activity.

The nature of series [2]: Cytotoxicity against L6 cells (resazurin, 72 h). The format is cell-based, rat. As to the method:
Assays were performed in 96-well microtiter plates, each well containing 100 μL of RPMI 1640 medium supplemented with 1% L-glutamine (200 mM) and 10% fetal bovine serum, and 4 × 10^4 L-6 cells. Serial drug dilutions of eleven 3-fold dilution steps covering a range from 100 to 0.002 μg/mL were prepared. After 72 h of incubation the plates were inspected under an inverted microscope to assure growth of the controls and sterile conditions. 10 μL of a resazurin solution (prepared dissolving 12.5 mg resazurin in 100 mL double distilled water) was then added to each well and the plates incubated for another 2 h. The plates were read with a Spectramax Gemini XS microplate fluorometer using an excitation wavelength of 536 nm and an emission wavelength of 588 nm. The IC50 values were calculated by linear regression from the sigmoidal dose inhibition curves using SoftmaxPro software (Molecular Devices Cooperation, Sunnyvale, CA, USA). The reported IC50 values are the means of at least two separate experiments. Podophyllotoxin was used as control drug.

The test system of series [3] is bloodstream forms of Trypanosoma brucei rhodesiense STIB 900 strain. Nature of the series: Activity against Trypanosoma brucei rhodesiense (resazurin, 72 h). The settings on record: at the highest test concentrations (20 μg/mL). Type of series: cell-based.
For series [4] the test system is unchanged. The arrangement: method as in PMID 22859016. As to conditions: cited from earlier work.
Where [5] appears, read: in vitro, bloodstream forms, mean of at least two replicates, read-out: IC50 T. b. rhodesiense.
Where [6] appears, read: in vitro, bloodstream forms, mean of at least two replicates, read-out: IC50 T. b. rhodesiense (in parentheses).
Where [7] appears, read: rat skeletal myoblasts, mean of at least two replicates, read-out: IC50 Cytotoxicity L6 cells.
Setting [8] is: rat skeletal myoblasts, mean of at least two replicates, read-out: IC50 Cytotoxicity L6 cells (in parentheses).
Setting [9] is: in vitro, read-out: IC50 against T. b. rhodesiense.

Converted amounts (≈) assume the structure as drawn. “And” between values parts separate entries of the source, which are not always exact repeats. Equal entries are not always repeated. Where two headings read alike, the source gives them in different places. A value given as a limit tells only on which side of the number the result lay.

Results on eleven molecules are retold here after paper PMC3806476, “Natural and Semisynthetic Analogues of Manadoperoxide B Reveal New Structural Requirements for Trypanocidal Activity” (Marine Drugs, 2013).

One may read the IC50 as the midpoint of a concentration-inhibition curve.

On to `CC/C=C(C)\C=C\CCC[C@]1(OC)C[C@H](C)[C@H](CC(=O)OC)OO1` [12-Isomanadoperoxide B (2), 12-isomanadoperoxide B], for which, in series [1] (IC50 against L6 cells divided by IC50 against the parasite), the “selectivity index (SI)” value was 345. The values for the IC50 in series [1] (setting [5]) and in series [1] (setting [6]) were 0.011 µg/mL and 32 nM, respectively. Besides, the “trypanocidal activity relative to manadoperoxide B (1)” value in series [1] (comparison of IC50 values against T. b. rhodesiense) was “four-fold reduction”. The IC50 at 72 h in series [2] (rat) is 3.8 µg/mL and 11.2 µM.

For the molecule `COC(=O)C[C@@H]1OO[C@@](CCCC=O)(OC)C[C@@H]1C` [Aldehyde 7], the IC50 came out at 1.21 µg/mL in series [1] (setting [5]) and 4420 nM in series [1] (setting [6]). Also, the half-maximal inhibitory concentration (IC50) at 72 h in series [2] (rat) was 7.55 µg/mL and 27.6 µM.

Turning to `CC/C=C(C)/C=C/CCCC1(O)C[C@H](C)[C@H](CC(=O)OC)O1` (stereo partly drawn) [Compound 6], the IC50 in series [1] (setting [5]) is greater than 20 µg/mL. Moreover, the IC50 at 72 h in series [2] (rat) was 82.3 µg/mL and 252 µM. Besides, the “antitrypanosomal activity (in words)” value in series [3] is “inactive”.

`CC[C@H]1OO[C@@H](CCC[C@]2(OC)C[C@H](C)[C@H](CC(=O)OC)OO2)C=C1C` [Compound 8]: the IC50 worked out at 0.16 µg/mL in series [1] (setting [5]) and 430 nM in series [1] (setting [6]). Besides, the IC50 at 72 h in series [2] (rat) is 12.6 µg/mL and 33.8 µM.

As for `CC/C=C(C)/C=C/CCC[C@]1(OC)C[C@H](C)[C@H](CC(=O)OC)OO1` [Manadoperoxide B (1), manadoperoxide B], the “IC50 T. b. rhodesiense” value in series [4] (in vitro) was 3 ng/mL (≈ 8.81 nM). Also, the IC50 in series [4] (in vitro, read-out: IC50 T. b. rhodesiense (in parentheses)) was 8.8 nM.

As to `CC/C=C(C)/C=C/CCC[C@]1(OC)C[C@H](C)[C@H](CC(=O)O)OO1` [Manadoperoxidic acid B (3), manadoperoxidic acid B], the IC50 in series [1] (setting [5]) was determined as 1.87 µg/mL; in series [1] (setting [6]), 5740 nM. In addition, the IC50 at 72 h in series [2] (rat) is 7.12 µg/mL and 21.8 µM.

Consider `Nc1nc(N)nc(Nc2ccc([As]3SCC(CO)S3)cc2)n1` (stereo not drawn) [Melarsoprol, reference compound], for which the results for the half-maximal inhibitory concentration (IC50) in series [1] (read-out: IC50 T. b. rhodesiense) and in series [1] (read-out: IC50 T. b. rhodesiense (in parentheses)) were 0.002 µg/mL and 5 nM, respectively. Further, the 50% inhibitory concentration (IC50) at 72 h in series [2] (setting [7]) was 7.3 µg/mL; in series [2] (setting [8]) it was 18.2 µM.

Regarding `COc1cc([C@@H]2c3cc4c(cc3[C@H](O)[C@H]3COC(=O)[C@H]23)OCO4)cc(OC)c1OC` [Podophyllotoxin, reference compound], the results for the IC50 at 72 h in series [2] (setting [7]) and in series [2] (setting [8]) were 0.004 µg/mL and 0.0096 µM, respectively.

On to manadoperoxide I, for which the “IC50 against T. b. rhodesiense” value in series [4] (in vitro) was 62 ng/mL. For the same molecule, the IC50 in series [4] (setting [9]) is 170 nM.

With manadoperoxide K, the “IC50 against T. b. rhodesiense” value in series [4] (in vitro) is reported as 87 ng/mL. For the same molecule, in series [4] (setting [9]), the IC50 is 240 nM.

In the case of peroxyplakoric ester B3, the “activity against T. b. rhodesiense (in words)” value in series [4] (methyl linked at C-2 in place of C-4) is “almost completely lost”.
